Laboratory results from patent US9340513B2, “Propenoate derivatives of betulin” (GlaxoSmithKline LLC, priority 2011, dated 2016).

Columns and labels:
[1] = test system: HIV; conditions: cited from earlier work
[2] = test system: HIV-1 (strain IIIB); assay: MT4 Cell Antiviral Assay; format: cell-based; conditions: Human immunodeficiency virus 1, 120 h; HIV-1 strain IIIB in MT4 cells, 5 days, Cell Titer-Glo; 50% decrease in HIV-induced cytopathic effect
In short: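 MT4 cells infected 1 h with HIV-1 IIIB (300×TCID50/million cells), then cultured 5 days with serially diluted compound; mock-infected cells run in parallel for cytotoxicity. Luminescence read-out. IC50 = concentration restoring 50% of infected-cell growth relative to uninfected controls, excluding concentrations leaving ≤79% of uninfected cells.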

**Q.** With `C=C(C)[C@@H]1CC[C@]2(C(=O)O)CC[C@]3(C)[C@H](CC[C@@H]4[C@@]5(C)CC[C@H](OC(=O)CC(C)(C)C(=O)O)C(C)(C)[C@@H]5CC[C@]43C)[C@@H]12` [Bevirimat] as the molecule, how does the “mean reduction of HIV viral load” value ([1]; patients with trough levels >=20 μg/mL and without key baseline Gag polymorphisms at Q369, V370 or T371) read?
**A.** 1.3 log10/mL

**Q.** And the “viral load reduction versus patients without Gag polymorphisms” value ([1]; users with Gag polymorphisms at Q369, V370 or T371)?
**A.** significantly lower load reductions

**Q.** With `C/C(=C\[C@@]12CC[C@]3(C)[C@H](CC[C@@H]4[C@@]5(C)CC[C@H](OC(=O)CC(C)(C)C(=O)O)C(C)(C)[C@@H]5CC[C@]43C)C1=C(C(C)C)C(=O)C2)C(=O)NC1(c2cccc(Cl)c2)CC1` [Example 29, 4-(((3aS,5aR,5bR,7aR,9S,11aR,11bR,13aS)-3a-((E)-3-((1-(3-Chlorophenyl)cyclopropyl)amino)-2-methyl-3-oxoprop-1-en-1-yl)-1-isopropyl-5a,5b,8,8,11a-pentamethyl-2-oxo-3,3a,4,5,5a,5b,6,7,7a,8,9,10,11,11a,11b,12,13,13a-octadecahydro-2H-cyclopenta[a]chrysen-9-yl)oxy)-2,2-dimethyl-4-oxobutanoic acid] as the molecule, how does the IC50 [2] read?
**A.** 0.01 to 0.25 µM

**Q.** With `CC(C)C1=C2[C@H]3CC[C@@H]4[C@@]5(C)CC[C@H](OC(=O)CC(C)(C)C(=O)O)C(C)(C)[C@@H]5CC[C@@]4(C)[C@]3(C)CC[C@@]2(/C=C/C(=O)NC2CCCCC2)CC1=O` [Example 30, 4-(((3aS,5aR,5bR,7aR,9S,11aR,11bR,13aS)-3a-((E)-3-(Cyclohexylamino)-3-oxoprop-1-en-1-yl)-1-isopropyl-5a,5b,8,8,11a-pentamethyl-2-oxo-3,3a,4,5,5a,5b,6,7,7a,8,9,10,11,11a,11b,12,13,13a-octadecahydro-2H-cyclopenta[a]chrysen-9-yl)oxy)-2,2-dimethyl-4-oxobutanoic acid] as the molecule, how does the IC50 [2] read?
**A.** 0.01 to 0.25 µM

**Q.** With `CC(C)C1=C2[C@H]3CC[C@@H]4[C@@]5(C)CC[C@H](OC(=O)CC(C)(C)C(=O)O)C(C)(C)[C@@H]5CC[C@@]4(C)[C@]3(C)CC[C@@]2(/C=C/C(=O)N[C@H](C)c2cccc(Cl)c2)CC1=O` [Example 31, 4-(((3aS,5aR,5bR,7aR,9S,11aR,11bR,13aS)-3a-((E)-3-(((R)-1-(3-Chlorophenyl)ethyl)amino)-3-oxoprop-1-en-1-yl)-1-isopropyl-5a,5b,8,8,11a-pentamethyl-2-oxo-3,3a,4,5,5a,5b,6,7,7a,8,9,10,11,11a,11b,12,13,13a-octadecahydro-2H-cyclopenta[a]chrysen-9-yl)oxy)-2,2-dimethyl-4-oxobutanoic acid] as the molecule, how does the IC50 [2] read?
**A.** 0.01 to 0.25 µM

**Q.** With `CC(C)C1=C2[C@H]3CC[C@@H]4[C@@]5(C)CC[C@H](OC(=O)CC(C)(C)C(=O)O)C(C)(C)[C@@H]5CC[C@@]4(C)[C@]3(C)CC[C@@]2(/C=C/C(=O)NCCO)CC1=O` [Example 32, 4-(((3aS,5aR,5bR,7aR,9S,11aR,11bR,13aS)-3a-((E)-3-((2-Hydroxyethyl)amino)-3-oxoprop-1-en-1-yl)-1-isopropyl-5a,5b,8,8,11a-pentamethyl-2-oxo-3,3a,4,5,5a,5b,6,7,7a,8,9,10,11,11a,11b,12,13,13a-octadecahydro-2H-cyclopenta[a]chrysen-9-yl)oxy)-2,2-dimethyl-4-oxobutanoic acid] as the molecule, how does the IC50 [2] read?
**A.** 0.01 to 0.25 µM

**Q.** For `CC(C)C1=C2[C@H]3CC[C@@H]4[C@@]5(C)CC[C@H](OC(=O)CC(C)(C)C(=O)O)C(C)(C)[C@@H]5CC[C@@]4(C)[C@]3(C)CC[C@@]2(/C=C/C(=O)NCC2CCCCC2)CC1=O` [Example 33, 4-(((3aS,5aR,5bR,7aR,9S,11aR,11bR,13aS)-3a-((E)-3-((Cyclohexylmethyl)amino)-3-oxoprop-1-en-1-yl)-1-isopropyl-5a,5b,8,8,11a-pentamethyl-2-oxo-3,3a,4,5,5a,5b,6,7,7a,8,9,10,11,11a,11b,12,13,13a-octadecahydro-2H-cyclopenta[a]chrysen-9-yl)oxy)-2,2-dimethyl-4-oxobutanoic acid], which IC50 [2] is on record?
**A.** < 0.01 µM

**Q.** Which IC50 [2] does the source give for `CC(C)C1=C2[C@H]3CC[C@@H]4[C@@]5(C)CC[C@H](OC(=O)CC(C)(C)C(=O)O)C(C)(C)[C@@H]5CC[C@@]4(C)[C@]3(C)CC[C@@]2(/C=C/C(=O)N[C@@H](C)c2cccc(Cl)c2)CC1` [Example 34, 4-(((3aR,5aR,5bR,7aR,9S,11aR,11bR,13aS)-3a-((E)-3-(((S)-1-(3-Chlorophenyl)ethyl)amino)-3-oxoprop-1-en-1-yl)-1-isopropyl-5a,5b,8,8,11a-pentamethyl-3,3a,4,5,5a,5b,6,7,7a,8,9,10,11,11a,11b,12,13,13a-octadecahydro-2H-cyclopenta[a]chrysen-9-yl)oxy)-2,2-dimethyl-4-oxobutanoic acid] here?
**A.** 0.01 to 0.25 µM
